This experiment concerns IκB-PL. In words: Homogenous EFC assay of lysates of HeLa/IκB-PL stable cell line stimulated with TNF-α. Particulars: increasing time periods. The experiment is classed as cell-based. An excerpt: The second experimental example illustrates the sensitivity of the EAstern blot method by following the regulated degradation of a PL-tagged cellular protein, IκB-PL. […] Stimulation of cells with cytokines, such as TNF-α, activates a pathway that leads to phosphorylation, ubiquitination, and subsequent degradation of IκB, which in turn leads to the release and activation of NF-κB. The regulated degradation of IκB is thus an indicator for NF-κB pathway activation.
Cell lysate samples for EAstern blot analysis were prepared from a HeLa/IκB-PL stable cell line (WO 03/021265, filed Aug. 27, 2002) that was cultured and stimulated with TNF-α for increasing time periods. […] Another fraction of each was used for gel electrophoresis and transfer to PVDF blots as described above. To detect IκB-PL, the EAstern blot protocol was adapted for use with the chemiluminescent substrate Beta-Glo (Promega Corp., Cat. No. E4720). In particular, after incubating with EA Reagent, the blot was incubated at RT for 10 min in a solution of Beta-Glo:EACB (1:1, v/v), sandwiched between clear plastic sheets, and then its luminescence detected with a CCD camera.

On to TNF-α, for which the “IκB-PL EFC signal after TNF-α stimulation” value is listed as “time-dependent degradation of IκB-PL signal”.

(Values after patent US7608415B2, “Analysis of intracellular modifications” (Discoverx Corporation, priority 2004, dated 2009).)
